Measured values as given in patent publication US8691865B2 (AbbVie Inc., priority 2008, dated 2014).
Like-named read-outs stand apart in the source and are kept apart here.

Biological target: human Cav2.2 (Homo sapiens, UniProt Q00975)
Assay: Assessment of calcium channel activity using FLIPR (Ca2+ influx in IMR32 cells)
Type: cell-based
Method in brief: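 Human neuroblastoma IMR32 cells were seeded at 1−1.2×10^5 cells/well and cultured 48 h at 37 °C before FLIPR calcium influx measurement. Percent inhibition at each concentration was calculated against the no-inhibitor signal, and IC50 came from sigmoidal dose-response fits.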

[1] = read-out: IC50 (μM) or percent inhibition (* indicates 3 minute incubation, otherwise 60 minute), IC50, 60 minute pre-incubation with compound, IMR32 cells, 80 mM KCl depolarization

Sequence of human Cav2.2 (Q00975 whole entry): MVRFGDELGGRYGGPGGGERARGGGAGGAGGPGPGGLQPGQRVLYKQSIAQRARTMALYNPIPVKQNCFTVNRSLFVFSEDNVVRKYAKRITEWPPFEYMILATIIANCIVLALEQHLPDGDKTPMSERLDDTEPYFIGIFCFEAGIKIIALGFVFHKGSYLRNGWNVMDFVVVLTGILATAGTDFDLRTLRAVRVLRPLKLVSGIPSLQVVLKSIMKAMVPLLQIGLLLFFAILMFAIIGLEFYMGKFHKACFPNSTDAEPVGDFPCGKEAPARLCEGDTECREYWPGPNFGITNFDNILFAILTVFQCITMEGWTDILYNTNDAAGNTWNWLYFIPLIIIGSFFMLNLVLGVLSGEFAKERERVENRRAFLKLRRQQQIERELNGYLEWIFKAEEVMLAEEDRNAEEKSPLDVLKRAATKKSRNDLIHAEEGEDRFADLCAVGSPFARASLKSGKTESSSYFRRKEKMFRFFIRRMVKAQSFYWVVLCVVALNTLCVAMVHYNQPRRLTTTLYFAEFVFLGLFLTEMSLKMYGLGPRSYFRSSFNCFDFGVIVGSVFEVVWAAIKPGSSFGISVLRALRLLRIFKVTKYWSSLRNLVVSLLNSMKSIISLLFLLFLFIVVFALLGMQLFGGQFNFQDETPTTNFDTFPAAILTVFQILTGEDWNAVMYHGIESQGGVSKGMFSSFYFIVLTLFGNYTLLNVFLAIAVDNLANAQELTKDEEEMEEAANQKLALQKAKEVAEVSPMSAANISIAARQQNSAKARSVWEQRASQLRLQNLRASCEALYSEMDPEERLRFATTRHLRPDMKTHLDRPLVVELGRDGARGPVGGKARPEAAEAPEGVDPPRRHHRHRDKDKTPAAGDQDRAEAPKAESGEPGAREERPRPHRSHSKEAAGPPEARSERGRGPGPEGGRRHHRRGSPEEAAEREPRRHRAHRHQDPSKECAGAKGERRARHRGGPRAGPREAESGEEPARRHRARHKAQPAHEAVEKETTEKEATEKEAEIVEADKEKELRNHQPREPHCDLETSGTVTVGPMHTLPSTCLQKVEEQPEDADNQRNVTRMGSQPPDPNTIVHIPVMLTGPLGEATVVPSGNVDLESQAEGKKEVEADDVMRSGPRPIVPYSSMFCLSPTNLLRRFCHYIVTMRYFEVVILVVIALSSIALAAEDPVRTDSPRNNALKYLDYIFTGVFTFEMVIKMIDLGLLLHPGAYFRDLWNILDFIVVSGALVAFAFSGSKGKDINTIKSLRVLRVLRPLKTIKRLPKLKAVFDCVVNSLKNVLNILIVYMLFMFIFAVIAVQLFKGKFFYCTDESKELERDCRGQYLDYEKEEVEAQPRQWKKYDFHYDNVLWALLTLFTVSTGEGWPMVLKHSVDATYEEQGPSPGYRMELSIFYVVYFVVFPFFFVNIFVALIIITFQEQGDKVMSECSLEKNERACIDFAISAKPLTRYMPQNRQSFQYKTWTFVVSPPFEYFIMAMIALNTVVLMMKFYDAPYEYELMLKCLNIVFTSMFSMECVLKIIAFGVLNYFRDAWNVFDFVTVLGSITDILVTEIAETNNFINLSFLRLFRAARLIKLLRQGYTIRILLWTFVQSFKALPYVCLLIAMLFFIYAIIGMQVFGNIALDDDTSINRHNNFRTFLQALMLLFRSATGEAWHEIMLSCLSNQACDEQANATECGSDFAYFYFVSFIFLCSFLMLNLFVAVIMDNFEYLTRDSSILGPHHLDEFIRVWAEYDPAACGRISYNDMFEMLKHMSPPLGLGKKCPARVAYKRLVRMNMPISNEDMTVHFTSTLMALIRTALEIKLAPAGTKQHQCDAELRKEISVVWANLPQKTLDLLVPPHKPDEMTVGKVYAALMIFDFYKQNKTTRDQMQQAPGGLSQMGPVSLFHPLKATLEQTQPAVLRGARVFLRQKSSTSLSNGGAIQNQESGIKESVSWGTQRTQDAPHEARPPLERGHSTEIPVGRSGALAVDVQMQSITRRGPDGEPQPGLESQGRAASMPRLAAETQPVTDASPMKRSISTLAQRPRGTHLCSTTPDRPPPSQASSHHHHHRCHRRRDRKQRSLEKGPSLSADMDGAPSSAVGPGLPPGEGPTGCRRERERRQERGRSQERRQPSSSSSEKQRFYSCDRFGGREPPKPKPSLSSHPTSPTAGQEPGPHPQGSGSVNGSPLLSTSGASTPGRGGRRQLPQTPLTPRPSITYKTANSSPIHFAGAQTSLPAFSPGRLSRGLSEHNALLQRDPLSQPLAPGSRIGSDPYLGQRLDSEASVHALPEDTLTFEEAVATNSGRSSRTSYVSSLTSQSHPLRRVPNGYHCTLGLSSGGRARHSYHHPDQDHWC
Sequence of human Cav2.2 (P54289 25-956 partner limits assumed): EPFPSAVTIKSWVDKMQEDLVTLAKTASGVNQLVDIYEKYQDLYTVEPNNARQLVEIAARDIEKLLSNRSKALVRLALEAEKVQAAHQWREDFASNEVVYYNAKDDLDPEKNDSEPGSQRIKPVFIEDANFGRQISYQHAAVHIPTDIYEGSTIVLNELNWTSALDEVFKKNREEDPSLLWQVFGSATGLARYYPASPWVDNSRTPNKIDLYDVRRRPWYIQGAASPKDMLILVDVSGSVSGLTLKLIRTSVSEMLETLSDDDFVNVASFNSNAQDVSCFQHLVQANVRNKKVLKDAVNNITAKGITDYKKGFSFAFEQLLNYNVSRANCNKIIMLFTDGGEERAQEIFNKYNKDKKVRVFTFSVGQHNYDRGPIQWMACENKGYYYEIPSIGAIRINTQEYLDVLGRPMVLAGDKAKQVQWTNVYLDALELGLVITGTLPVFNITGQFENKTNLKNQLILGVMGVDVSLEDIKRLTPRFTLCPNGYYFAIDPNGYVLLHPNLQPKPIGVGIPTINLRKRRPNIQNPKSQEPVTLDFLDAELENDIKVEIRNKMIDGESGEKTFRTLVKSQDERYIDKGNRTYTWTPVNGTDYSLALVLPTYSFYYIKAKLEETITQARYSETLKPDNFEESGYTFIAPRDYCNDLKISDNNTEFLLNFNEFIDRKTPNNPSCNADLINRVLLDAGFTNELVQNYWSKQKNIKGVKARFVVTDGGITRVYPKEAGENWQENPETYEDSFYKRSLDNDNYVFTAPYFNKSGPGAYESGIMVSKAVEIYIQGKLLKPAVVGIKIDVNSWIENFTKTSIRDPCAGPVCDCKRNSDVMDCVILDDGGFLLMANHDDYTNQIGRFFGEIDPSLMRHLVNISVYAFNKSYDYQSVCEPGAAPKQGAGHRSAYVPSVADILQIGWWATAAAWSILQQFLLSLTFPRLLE
Sequence of human Cav2.2 (P54289 957-1103 partner limits assumed): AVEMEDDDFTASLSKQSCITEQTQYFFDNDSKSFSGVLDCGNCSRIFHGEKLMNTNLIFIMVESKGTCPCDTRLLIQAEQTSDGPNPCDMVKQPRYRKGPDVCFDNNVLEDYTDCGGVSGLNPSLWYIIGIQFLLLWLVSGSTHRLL
Sequence of human Cav2.2 (P54284 whole entry partner): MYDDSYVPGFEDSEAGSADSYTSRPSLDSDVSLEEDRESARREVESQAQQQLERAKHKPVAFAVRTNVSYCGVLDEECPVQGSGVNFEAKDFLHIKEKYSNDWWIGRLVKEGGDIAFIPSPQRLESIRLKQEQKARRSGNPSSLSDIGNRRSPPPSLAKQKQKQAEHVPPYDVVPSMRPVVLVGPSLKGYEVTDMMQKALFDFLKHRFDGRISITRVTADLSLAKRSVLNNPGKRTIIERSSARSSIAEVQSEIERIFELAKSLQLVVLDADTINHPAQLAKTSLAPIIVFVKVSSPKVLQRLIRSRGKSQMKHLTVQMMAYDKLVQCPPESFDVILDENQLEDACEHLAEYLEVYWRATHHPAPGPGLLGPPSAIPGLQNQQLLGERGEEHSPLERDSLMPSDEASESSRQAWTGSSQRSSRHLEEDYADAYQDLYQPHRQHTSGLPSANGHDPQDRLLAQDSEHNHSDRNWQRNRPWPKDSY

Row | IC50 [µM] | IC50 [1] [µM] | Compound
1 | > 16.4 |  | CCC[C@H](NC(=O)OC(C)C)C(=O)N[C@H]1CC[C@@H]2CN(S(=O)(=O)c3ccc(C(F)(F)F)cc3)C[C@@H]21 [Example 279, isopropyl(S)-1-oxo-1-((3aR,4S,6aS)-2-(4-(trifluoromethyl)phenylsulfonyl)octahydrocyclopenta[c]pyrrol-4-ylamino)pentan-2-ylcarbamate]
2 | > 30 |  | CN[C@@H](CC(C)(C)C)C(=O)N[C@H]1CC[C@@H]2CN(Cc3ccccc3)C[C@@H]21 [Example 355, N^1-[(3aR,4S,6aS)-2-benzyloctahydrocyclopenta[c]pyrrol-4-yl]-N^2,4-dimethyl-L-leucinamide]
3 |  | > 30 | N^1-[(3aR,4S,6aS)-2-(4-fluorobenzyl)octahydrocyclopenta[c]pyrrol-4-yl]-N^2-methyl-L-norvalinamide [Example 378]
4 | 0.46 |  | CC(C)(C)C[C@H](NCC1CC1)C(=O)N[C@H]1CC[C@@H]2CN(c3ccc(C(F)(F)F)cn3)C[C@@H]21 [Example 478, N^2-(cyclopropylmethyl)-4-methyl-N^1-{(3aR,4S,6aS)-2-[5-(trifluoromethyl)pyridin-2-yl]octahydrocyclopenta[c]pyrrol-4-yl}-L-leucinamide]
5 | 0.75 |  | CN[C@@H](CC(C)C)C(=O)N[C@H]1CC[C@@H]2CN(c3cc(F)ccc3C(F)F)C[C@@H]21 [Example 770, N-{(3aR,4S,6aS)-2-[2-(difluoromethyl)-5-fluorophenyl]octahydrocyclopenta[c]pyrrol-4-yl}-N^2-methyl-L-leucinamide]
6 | 1.45 |  | NC1(C(=O)N[C@H]2CC[C@@H]3CN(c4cccc(C(F)(F)F)n4)C[C@@H]32)CCCC1 [Example 594, 1-amino-N-{(3aR,4S,6aS)-2-[6-(trifluoromethyl)pyridin-2-yl]octahydrocyclopenta[c]pyrrol-4-yl}cyclopentanecarboxamide]
7 | 0.59 |  | O=S(=O)(c1cccc(C(F)(F)F)c1)N1C[C@H]2CC[C@H](NCc3cc4cc(F)ccc4[nH]3)[C@H]2C1 [Example 650, (3aR,4S,6aS)-N-[(5-fluoro-1H-indol-2-yl)methyl]-2-{[3-(trifluoromethyl)phenyl]sulfonyl}octahydrocyclopenta[c]pyrrol-4-amine]
8 | > 22.5 |  | CS(=O)(=O)N1CCCC[C@H]1C(=O)N[C@@H]1CC[C@H]2CN(Cc3ccccc3)C[C@H]21 [Example 514, (2S)-N-[(3aS,4R,6aR)-2-benzyloctahydrocyclopenta[c]pyrrol-4-yl]-1-(methylsulfonyl)piperidine-2-carboxamide]
9 | 1.42 |  | CN[C@H](C(=O)N[C@H]1CC[C@@H]2CN(c3cccc(OC(F)(F)F)c3)C[C@@H]21)C(C)C [Example 758, N^2-methyl-N-{(3aR,4S,6aS)-2-[3-(trifluoromethoxy)phenyl]octahydrocyclopenta[c]pyrrol-4-yl}-L-valinamide]
10 | 2.05 |  | CC(C)CC(C(=O)NC1CCC2CN(Cc3ccc(C(F)(F)F)c(F)c3)CC21)N(C)C(=O)OC(C)(C)C [Example 311, tert-butyl(S)-1-((3aS,4R,6aR)-2-(3-fluoro-4-(trifluoromethyl)benzyl)octahydrocyclopenta[c]pyrrol-4-ylamino)-4-methyl-1-oxopentan-2-ylmethyl)carbamate]
11 | > 16.4 |  | CN[C@H](C(=O)N[C@@H]1CC[C@H]2CN(Cc3ccc(F)cc3)C[C@H]21)C(C)C [Example 369, N^1-[(3aS,4R,6aR)-2-(4-fluorobenzyl)octahydrocyclopenta[c]pyrrol-4-yl]-N^2-methyl-L-valinamide]
12 | 3.52 |  | FC(F)(F)c1cccc(N2C[C@H]3CC[C@H](NCc4cn[nH]c4)[C@H]3C2)n1 [Example 696, (3aR,4S,6aS)-N-(1H-pyrazol-4-ylmethyl)-2-[6-(trifluoromethyl)pyridin-2-yl]octahydrocyclopenta[c]pyrrol-4-amine]
13 | 2.36 |  | CN[C@H](CC(C)C)C(=O)N[C@@H]1CC[C@H]2CN(c3ccc(C(F)(F)F)cc3)C[C@H]21 [Example 768, N^2-methyl-N-{(3aS,4R,6aR)-2-[4-(trifluoromethyl)phenyl]octahydrocyclopenta[c]pyrrol-4-yl}-D-leucinamide]
14 |  | 1.78 | Cc1cccc(CN2C[C@H]3CC[C@H](NC(=O)C(c4ccccc4)C(C)C)[C@H]3C2)c1 (stereo partly drawn) [Example 91, 3-methyl-N-[(3aR,4S,6aS)-2-(3-methylbenzyl)octahydrocyclopenta[c]pyrrol-4-yl]-2-phenylbutanamide]
15 |  | 12.8 | CC(C)(C)[C@H](NS(C)(=O)=O)C(=O)N[C@H]1CC[C@@H]2CN(Cc3ccc(C(F)(F)F)cc3)C[C@@H]21 [Example 520, 3-methyl-N^2-(methylsulfonyl)-N^1-{(3aR,4S,6aS)-2-[4-(trifluoromethyl)benzyl]octahydrocyclopenta[c]pyrrol-4-yl}-L-valinamide]
16 | 1.31 |  | CN[C@@H](CC(C)(C)C)C(=O)N[C@H]1CC[C@@H]2CN(S(=O)(=O)c3ccc(C(F)(F)F)cc3)C[C@@H]21 [Example 415, N^2,4-dimethyl-N^1-((3aR,4S,6aS)-2-{[4-(trifluoromethyl)phenyl]sulfonyl}octahydrocyclopenta[c]pyrrol-4-yl)-L-leucinamide]

Row | IC50 [µM] | IC50 [1] [µM] | Compound
17 |  | 9.36 | CC(C)(C)OC(=O)N[C@H](C(=O)N[C@H]1CC[C@@H]2CN(Cc3ccccc3)C[C@@H]21)C(C)(C)C [Example 225, tert-butyl(S)-1-((3aR,4S,6aS)-2-benzyloctahydrocyclopenta[c]pyrrol-4-ylamino)-3,3-dimethyl-1-oxobutan-2-ylcarbamate]
18 | 0.85 |  | O=S(=O)(N[C@@H]1CC[C@@H]2CN(Cc3cccc(C(F)(F)F)c3)C[C@@H]21)c1cccc(C(F)(F)F)c1 [Example 188, 3-(trifluoromethyl)-N-{(3aR,4R,6aS)-2-[3-(trifluoromethyl)benzyl]octahydrocyclopenta[c]pyrrol-4-yl}benzenesulfonamide]
19 | 1.13 |  | CN[C@H](C(=O)N[C@H]1CC[C@@H]2CN(c3cccc(C(F)(F)F)c3)C[C@@H]21)C(C)C [Example 757, N^2-methyl-N-{(3aR,4S,6aS)-2-[3-(trifluoromethyl)phenyl]octahydrocyclopenta[c]pyrrol-4-yl}-L-valinamide]
20 | 0.74 |  | Cc1ccc(-c2n[nH]cc2CN[C@H]2CC[C@@H]3CN(c4cccc(C(F)(F)F)n4)C[C@@H]32)cc1 [Example 673, (3aR,4S,6aS)-N-{[3-(4-methylphenyl)-1H-pyrazol-4-yl]methyl}-2-[6-(trifluoromethyl)pyridin-2-yl]octahydrocyclopenta[c]pyrrol-4-amine]
21 | 0.94 |  | Cn1c(CN[C@H]2CC[C@@H]3CN(c4cccc(C(F)(F)F)n4)C[C@@H]32)nc2ccccc21 [Example 731, (3aR,4S,6aS)-N-[(1-methyl-1H-benzimidazol-2-yl)methyl]-2-[6-(trifluoromethyl)pyridin-2-yl]octahydrocyclopenta[c]pyrrol-4-amine]
22 |  | 9.68 | CCC[C@H](NC)C(=O)N[C@H]1CC[C@@H]2CN(S(=O)(=O)c3cccs3)C[C@@H]21 [Example 533, N^2-methyl-N^1-[(3aR,4S,6aS)-2-(thien-2-ylsulfonyl)octahydrocyclopenta[c]pyrrol-4-yl]-L-norvalinamide]
23 | 2.32 |  | CN[C@H](CC(C)C)C(=O)N[C@H]1CC[C@@H]2CN(c3ccc(C(F)(F)F)cc3)C[C@@H]21 [Example 760, N^2-methyl-N-{(3aR,4S,6aS)-2-[4-(trifluoromethyl)phenyl]octahydrocyclopenta[c]pyrrol-4-yl}-D-leucinamide]
24 | 1.07 |  | CCCC(C(=O)NC1CCC2CN(Cc3ccc(F)cc3)CC21)N(C)C(=O)OC(C)(C)C (single isomer, unassigned) [Example 318]
25 | 1 |  | CC(C)C[C@@H](O)C(=O)N[C@H]1CC[C@@H]2CN(c3cccc(C(F)(F)F)n3)C[C@@H]21 [Example 578, (2R)-2-hydroxy-4-methyl-N-{(3aR,4S,6aS)-2-[6-(trifluoromethyl)pyridin-2-yl]octahydrocyclopenta[c]pyrrol-4-yl}pentanamide]
26 | 3.33 |  | Fc1ccc2[nH]c(CN[C@H]3CC[C@@H]4CN(c5ccc(C(F)(F)F)cn5)C[C@@H]43)cc2c1 [Example 614, (3aR,4S,6aS)-N-[(5-fluoro-1H-indol-2-yl)methyl]-2-[5-(trifluoromethyl)pyridin-2-yl]octahydrocyclopenta[c]pyrrol-4-amine]
27 |  | 14.3 | O=C(N[C@@H]1CC[C@H]2CN(C(c3ccccc3)c3ccccc3)C[C@H]21)C(C1CCCCC1)C1CCCCC1 [Example 121, N-[(3aS,4R,6aR)-2-benzhydryloctahydrocyclopenta[c]pyrrol-4-yl]-2,2-dicyclohexylacetamide]
28 |  | 1.04 | CC(C)C(C(=O)N[C@H]1CC[C@@H]2CN(Cc3ccc(C(C)(C)C)cc3)C[C@@H]21)c1ccccc1 (stereo partly drawn) [Example 95, N-[(3aR,4S,6aS)-2-(4-tert-butylbenzyl)octahydrocyclopenta[c]pyrrol-4-yl]-3-methyl-2-phenylbutanamide]
29 |  | 1.39 | CCC[C@@H](C(=O)N[C@@H]1CC[C@@H]2CN(S(=O)(=O)c3ccc(C(F)(F)F)cc3)C[C@@H]21)N(C)C(=O)OC(C)(C)C [Example 328, tert-butyl methyl((S)-1-oxo-1-((3aR,4R,6aS)-2-(4-(trifluoromethyl)phenylsulfonyl)octahydrocyclopenta[c]pyrrol-4-ylamino)pentan-2-yl)carbamate]
30 |  | 1.57 | O=C(N[C@@H]1CC[C@H]2CN(Cc3ccccc3)C[C@H]21)C(c1ccccc1)C1CCCC1 (stereo partly drawn) [Example 17, N-[(3aS,4R,6aR)-2-benzyloctahydrocyclopenta[c]pyrrol-4-yl]-2-cyclopentyl-2-phenylacetamide]
31 | 1.62 |  | FC(F)(F)c1cccc(N2C[C@H]3CC[C@H](NCc4[nH]c5ccccc5c4Cl)[C@H]3C2)n1 [Example 679, (3aR,4S,6aS)-N-[(3-chloro-1H-indol-2-yl)methyl]-2-[6-(trifluoromethyl)pyridin-2-yl]octahydrocyclopenta[c]pyrrol-4-amine]
